Tests used:
[1] = tested on: SW48 human colorectal cancer cells (MSI-H cancer cells); assay: SW48 cell viability, CellTiter-Glo, 120 hours (Example B); settings: Homo sapiens, SW48, 120 h, read-out: SW48 pCC50, SW48 cell viability, 120 hours incubation (converted); Table 2
[2] = molecular target: T1, recombinant full-length WRN protein (1-1432) (Homo sapiens, UniProt Q14191); assay: WRN unwinding activity, fluorogenic 384-well assay (Example A); format: biochemical; settings: WRN unwinding activity, 4 hr; Table 2; read-out: 4 hr UNW pIC50 (converted)
T1 construct: recombinant full-length WRN protein (1-1432)
T1 sequence (Q14191 whole entry): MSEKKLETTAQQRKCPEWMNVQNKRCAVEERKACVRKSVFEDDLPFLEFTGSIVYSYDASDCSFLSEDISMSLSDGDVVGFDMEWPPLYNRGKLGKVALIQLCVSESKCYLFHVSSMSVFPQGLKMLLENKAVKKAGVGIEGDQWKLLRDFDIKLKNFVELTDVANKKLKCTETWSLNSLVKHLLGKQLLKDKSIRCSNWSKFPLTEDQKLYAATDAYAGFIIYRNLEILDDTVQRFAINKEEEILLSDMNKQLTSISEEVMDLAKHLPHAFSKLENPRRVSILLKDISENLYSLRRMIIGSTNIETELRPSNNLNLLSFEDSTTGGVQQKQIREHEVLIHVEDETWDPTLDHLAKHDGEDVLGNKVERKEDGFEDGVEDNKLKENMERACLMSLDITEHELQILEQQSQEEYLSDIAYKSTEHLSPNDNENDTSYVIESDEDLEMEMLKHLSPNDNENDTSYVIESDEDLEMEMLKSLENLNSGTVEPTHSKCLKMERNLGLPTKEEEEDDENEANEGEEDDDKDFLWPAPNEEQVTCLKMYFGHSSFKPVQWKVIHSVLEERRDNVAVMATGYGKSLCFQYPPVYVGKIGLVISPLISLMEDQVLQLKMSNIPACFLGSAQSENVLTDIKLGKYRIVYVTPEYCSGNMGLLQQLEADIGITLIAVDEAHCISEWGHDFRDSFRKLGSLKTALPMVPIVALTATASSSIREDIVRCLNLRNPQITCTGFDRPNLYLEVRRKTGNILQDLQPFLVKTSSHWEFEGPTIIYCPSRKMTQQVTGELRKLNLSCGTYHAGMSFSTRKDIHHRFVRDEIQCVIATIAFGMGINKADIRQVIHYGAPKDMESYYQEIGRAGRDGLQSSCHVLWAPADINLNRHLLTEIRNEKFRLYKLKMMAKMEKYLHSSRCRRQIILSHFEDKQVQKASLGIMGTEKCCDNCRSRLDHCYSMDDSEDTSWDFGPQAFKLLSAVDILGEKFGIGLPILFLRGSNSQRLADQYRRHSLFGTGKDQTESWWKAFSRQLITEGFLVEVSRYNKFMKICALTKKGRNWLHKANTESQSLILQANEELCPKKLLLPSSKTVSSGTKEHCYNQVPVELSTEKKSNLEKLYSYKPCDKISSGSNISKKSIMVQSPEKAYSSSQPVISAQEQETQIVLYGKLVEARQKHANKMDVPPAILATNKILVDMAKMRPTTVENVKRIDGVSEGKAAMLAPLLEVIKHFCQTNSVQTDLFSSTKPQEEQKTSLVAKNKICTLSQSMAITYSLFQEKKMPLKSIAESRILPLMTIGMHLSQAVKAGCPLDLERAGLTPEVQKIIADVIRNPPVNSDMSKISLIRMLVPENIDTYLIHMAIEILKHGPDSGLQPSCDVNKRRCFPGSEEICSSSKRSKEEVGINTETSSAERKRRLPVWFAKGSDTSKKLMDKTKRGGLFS
Outline: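 200 pM enzyme (2× stock) preincubated with compound 4 h at ambient temperature, then 200 μM ATP and 12 nM quenched TAMRA-labelled dsDNA (2× stocks) added for 60 min; EDTA-quenched. Buffer 25 mM Tris pH 8.0, 5 mM NaCl, 2 mM MgCl2. Fluorescence at 525/598 nm; pIC50 from four-parameter fit.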

SMILES | CC50 [1] [nM] | IC50 [2] [nM]
Cc1nc2cc(S(=O)(=O)N(C)c3ccc([C@@H]4CCC[C@H](C(=O)Nc5ccc(C(F)(F)F)cc5F)[C@H]4C(=O)O)cc3C#N)ccc2n1C (single isomer, unassigned) [Example 162] | 3160 | 2
CC[C@H]1CC[C@H](NC(=O)[C@@H]2CCC[C@H](c3ccc(N(C)S(=O)(=O)c4ccc5c(c4)nc(C)n5C)cc3)[C@H]2C(=O)O)CC1 [Example 176, (1R,2R,6S)-2-(((1r,4R)-4-ethylcyclohexyl)carbamoyl)-6-(4-((N, 1,2-trimethyl-1H-benzo[d]imidazole)-5-sulfonamido)phenyl)cyclohexane-1-carboxylic acid] | 1260 | 1.26
Cc1nc2cc(S(=O)(=O)N(C)c3ccc([C@H]4CCC[C@H](C(=O)Nc5ccc(C(C)C)cc5)[C@@H]4C(=O)O)cc3)ccc2n1C (single isomer, unassigned) [Example 73] | 3980 | 1.26
Cc1nc2cc(S(=O)(=O)N(C)c3ccc([C@@H]4C[C@H](OCC5(C)COC5)C[C@H](C(=O)Nc5ccc(C(F)(F)F)cc5F)[C@H]4C(=O)O)cc3)ccc2n1C (stereo in doubt) [Example 366, rel-(1R,2R,4R,6S)-2-((2-fluoro-4-(trifluoromethyl)phenyl)carbamoyl)-4-((3-methyloxetan-3-yl)methoxy)-6-(4-((N,1,2-trimethyl-1H-benzo[d]imidazole)-5-sulfonamido)phenyl)cyclohexane-1-carboxylic acid] | 15800 | 126
COc1cc(S(=O)(=O)N(C)c2ccc([C@H]3CCC[C@@H](C(=O)Nc4ccc(C(F)(F)F)cc4F)[C@@H]3C(=O)O)cc2)ccc1Br [Example 136, (1R,2S,6R)-2-(4-((4-bromo-3-methoxy-N-methylphenyl)sulfonamido)phenyl)-6-((2-fluoro-4-(trifluoromethyl)phenyl)carbamoyl)cyclohexane-1-carboxylic acid] | 3160 | 39.8
Cc1nc2cc(S(=O)(=O)N(C)c3ccc([C@H]4COC[C@@H](C(=O)Nc5ccc(C(F)(F)F)cc5F)[C@@H]4C(=O)O)cc3)ccc2n1C (racemic) [Example 232, rac-(3R,4S,5R)-3-((2-fluoro-4-(trifluoromethyl)phenyl)carbamoyl)-5-(4-((N,1,2-trimethyl-1H-benzo[d]imidazole)-5-sulfonamido)phenyl)tetrahydro-2H-pyran-4-carboxylic acid] | 1260 | 1.58
Cc1nc2cc(S(=O)(=O)N(C)c3ccc([C@H]4CCC[C@@H](C(=O)Nc5ccc(C(C)C)cc5)[C@@H]4C(=O)O)cc3)ccc2n1C (single isomer, unassigned) [Example 80] | 501 | 1.58
O=C(O)[C@@H]1[C@@H](c2ccc(-c3ccc(F)nc3)cc2)CCC[C@H]1C(=O)Nc1ccc(C(F)(F)F)cc1F [Example 25, (1R,2R,6S)-2-((2-fluoro-4-(trifluoromethyl)phenyl)carbamoyl)-6-(4-(6-fluoropyridin-3-yl)phenyl)cyclohexane-1-carboxylic acid] | 5010 | 1.58
Cc1nc2cc(S(=O)(=O)N(C)c3ccc([C@@H]4C[C@H](OC(C)C)C[C@H](C(=O)Nc5ccc(C(F)(F)F)cc5F)[C@H]4C(=O)O)cc3)ccc2n1C (stereo in doubt) [Example 312, rel-(1R,2R,4R,6S)-2-((2-fluoro-4-(trifluoromethyl)phenyl)carbamoyl)-4-isopropoxy-6-(4-((N,1,2-trimethyl-1H-benzo[d]imidazole)-5-sulfonamido)phenyl)cyclohexane-1-carboxylic acid] | 12600 | 158
CN(c1ccc([C@H]2CCC[C@@H](C(=O)Nc3ccc(C(F)(F)F)cc3F)[C@@H]2C(=O)O)cc1)S(=O)(=O)c1ccc(O)c(C=O)c1 [Example 248] | 3980 | 3.16
CCO[C@@H]1CC[C@@H](C(=O)Nc2ccc(C(F)(F)F)cc2F)[C@H](C(=O)O)[C@H]1c1ccc(N(C)S(=O)(=O)c2ccc3c(c2)nc(C)n3C)cc1 (racemic) [Example 371, rac-(1R,2S,3R,6R)-3-ethoxy-6-((2-fluoro-4-(trifluoromethyl)phenyl)carbamoyl)-2-(4-((N,1,2-trimethyl-1H-benzo[d]imidazole)-5-sulfonamido)phenyl)cyclohexane-1-carboxylic acid] | 1000 | 6.31
Cc1nc2cc(S(=O)(=O)N(C)c3ccc([C@@H]4C[C@H](C#N)C[C@H](C(=O)Nc5ccc(C(F)(F)F)cc5F)[C@H]4C(=O)O)cc3)ccc2n1C (single isomer, unassigned) [Example 286] | 12600 | 100
CN(c1ccc([C@H]2CCC[C@@H](C(=O)Nc3ccc(C(F)(F)F)cc3F)[C@@H]2C(=O)O)cc1)S(=O)(=O)c1cccc(S(N)(=O)=O)c1 [Example 134, (1R,2R,6S)-2-((2-fluoro-4-(trifluoromethyl)phenyl)carbamoyl)-6-(4-((N-methyl-3-sulfamoylphenyl)sulfonamido)phenyl)cyclohexane-1-carboxylic acid] | 12600 | 7.94
CN(c1ccc([C@H]2CCC[C@@H](C(=O)Nc3ccc(C(F)(F)F)cc3F)[C@@H]2C(=O)O)cc1)S(=O)(=O)c1ccc(S(N)(=O)=O)cc1 [Example 133, (1R,2R,6S)-2-((2-fluoro-4-(trifluoromethyl)phenyl)carbamoyl)-6-(4-((N-methyl-4-sulfamoylphenyl)sulfonamido)phenyl)cyclohexane-1-carboxylic acid] | 12600 | 3.98
Cc1nc2cc(S(=O)(=O)N(C)c3ccc([C@@H]4C[C@H](OC(F)F)C[C@H](C(=O)Nc5ccc(C(F)(F)F)cc5F)[C@H]4C(=O)O)cc3)ccc2n1C (stereo in doubt) [Example 283, rel-(1R,2R,4R,6S)-4-(difluoromethoxy)-2-((2-fluoro-4-(trifluoromethyl)phenyl)carbamoyl)-6-(4-((N,1,2-trimethyl-1H-benzo[d]imidazole)-5-sulfonamido)phenyl)cyclohexane-1-carboxylic acid] | 20000 | 631
Cc1nc2cc(S(=O)(=O)N(C)c3ccc([C@H]4C[C@H](N5CCC(F)(F)C5)C[C@@H](C(=O)Nc5ccc(C(F)(F)F)cc5F)[C@@H]4C(=O)O)cc3)ccc2n1C (stereo in doubt) [Example 304, rel-(1R,2R,4S,6S)-4-(3,3-difluoropyrrolidin-1-yl)-2-((2-fluoro-4-(trifluoromethyl)phenyl)carbamoyl)-6-(4-((N,1,2-trimethyl-1H-benzo[d]imidazole)-5-sulfonamido)phenyl)cyclohexane-1-carboxylic acid] | 12600 | 15.8
Cc1nc2cc(S(=O)(=O)N(C)c3ccc([C@H]4CCC[C@@H](C(=O)NC56CC(CC(F)(F)F)(C5)C6)[C@@H]4C(=O)O)cc3)ccc2n1C [Example 174, (1R,2R,6S)-2-((3-(2,2,2-trifluoroethyl)bicyclo[1.1.1]pentan-1-yl)carbamoyl)-6-(4-((N,1,2-trimethyl-1H-benzo[d]imidazole)-5-sulfonamido)phenyl)cyclohexane-1-carboxylic acid] | 10000 | 20
O=C(O)[C@@H]1[C@@H](c2ccc(N3CCCCC3)cc2)CCC[C@H]1C(=O)Nc1ccc(C(F)(F)F)cc1F (racemic) [Example 222, rac-(1R,2R,6S)-2-((2-fluoro-4-(trifluoromethyl)phenyl)carbamoyl)-6-(4-(piperidin-1-yl)phenyl)cyclohexane-1-carboxylic acid] | – | 501
O=C(O)[C@@H]1[C@@H](c2ccc(-c3cnn4c3CCC4)cc2)CCC[C@H]1C(=O)Nc1ccc(C(F)(F)F)cc1F [Example 17, (1R,2S,6R)-2-(4-(5,6-dihydro-4H-pyrrolo[1,2-b]pyrazol-3-yl)phenyl)-6-((2-fluoro-4-(trifluoromethyl)phenyl)carbamoyl)cyclohexane-1-carboxylic acid] | – | 20
O=C(O)[C@@H]1[C@@H](c2ccc(C(F)(F)F)cc2)CCC[C@H]1C(=O)Nc1ccc(C(F)(F)F)cc1F (racemic) [Example 247, rac-(1R,2R,6S)-2-((2-fluoro-4-(trifluoromethyl)phenyl)carbamoyl)-6-(4-(trifluoromethyl)phenyl)cyclohexane-1-carboxylic acid] | – | 79.4
Cc1nc2cc(S(=O)(=O)N(C)c3ccc([C@H]4CCC[C@@H](CN(C)C5CCOCC5)[C@@H]4C(=O)O)cc3)ccc2n1C (racemic) [Example 202, rac-(1R,2R,6S)-2-((methyl(tetrahydro-2H-pyran-4-yl)amino)methyl)-6-(4-((N,1,2-trimethyl-1H-benzo[d]imidazole)-5-sulfonamido)phenyl)cyclohexane-1-carboxylic acid] | – | 100000
Cc1nc2cc(S(=O)(=O)N(C)c3ccc([C@H]4CCC[C@@H](C(=O)Nc5c(F)cc(C(C)C)cc5F)[C@@H]4C(=O)O)cc3)ccc2n1C (single isomer, unassigned) [Example 170] | – | 79.4
CC(=O)N1CCc2cc(S(=O)(=O)N(C)c3ccc([C@H]4CCC[C@@H](C(=O)Nc5ccc(C(F)(F)F)cc5F)[C@@H]4C(=O)O)cc3)ccc21 (single isomer, unassigned) [Example 89] | – | 200
Cc1nc2cc(S(=O)(=O)N(C)c3ccc([C@H]4C[C@]5(CCCO5)C[C@@H](C(=O)Nc5ccc(C(F)(F)F)cc5F)[C@@H]4C(=O)O)cc3)ccc2n1C (stereo in doubt) [Example 388, rel-(5R,7R,8R,9S)-7-((2-fluoro-4-(trifluoromethyl)phenyl)carbamoyl)-9-(4-((N,1,2-trimethyl-1H-benzo[d]imidazole)-5-sulfonamido)phenyl)-1-oxaspiro[4.5]decane-8-carboxylic acid] | – | 3.98
